Assay [1] concerns the target T1, human SCD1 (Homo sapiens, UniProt O00767).
T1 construct: host or cells: S. cerevisiae ole1Δ strain (W303 pdr1Δ pdr3Δ background), pRS316 plasmid, TDH3 promoter
T1 sequence (O00767 1-359): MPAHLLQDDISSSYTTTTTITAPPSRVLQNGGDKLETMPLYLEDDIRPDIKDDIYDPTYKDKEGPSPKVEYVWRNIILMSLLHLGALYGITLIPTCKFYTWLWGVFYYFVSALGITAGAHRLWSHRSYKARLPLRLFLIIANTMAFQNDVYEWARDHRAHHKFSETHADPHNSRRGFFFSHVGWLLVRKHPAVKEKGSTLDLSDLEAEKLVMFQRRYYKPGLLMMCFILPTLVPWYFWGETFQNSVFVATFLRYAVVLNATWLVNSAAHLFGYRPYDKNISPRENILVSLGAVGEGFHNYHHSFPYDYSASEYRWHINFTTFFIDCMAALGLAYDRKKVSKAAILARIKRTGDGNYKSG
Briefly: Growth of humanized yeast expressing human SCD1 as sole desaturase. It is filed as cell-based, humanized yeastized yeastized yeastized yeast. Particulars: yeast growth. The method, then: The coding sequence of yeast OLE1 was also cloned into this plasmid). These clones were then transformed into the ole1Δ strain and plated on CSM-Ura media (CSM lacking uracil) with 2% glucose (w/v) and independent colonies were isolated and amplified.
All compound profiling experiments were performed using the same basic protocol. Different genetic backgrounds (e.g., gene deletions) or conditions (e.g., addition of oleic and palmitoleic acid) were replaced as indicated below.
Compound administration was performed in two separate steps. First, 15 μL of CSM-Galactose (induces expression of toxic protein) was dispensed into clear 384 well assay plates using a MULTIDROP™ Combi reagent dispenser. […] The cultures described above were then diluted to a 2× concentration (0.03 and 0.08 for alpha-synuclein and ApoE, final OD600 of 0.015 and 0.04) in CSM-Galactose. For wild-type and Ole1/SCD1/SCD5 plasmid-containing strains, the 2× cell density was 0.02.
For experiments using a plasmid-borne copy of Ole1, SCD1, or SCD5 (FIGS. 4B, 7, and 8), media lacking uracil (SX-Ura, where X is glucose, raffinose, or galactose), was used for all steps of the compound profiling protocol to ensure its maintenance throughout the assay.
After yeast delivery, assay plates were incubated under humidified conditions at 30° C. for 24 to 40 h. ApoE4 rescue experiments were stopped at 24 h, aSyn experiments at 40 h, Ole1 at 24 h, and SCD1/SCD5 at 40 h. The growth of yeast was monitored by reading the OD600 of each well using a microplate reader (Perkin Elmer EnVision™).

In assay [2] the test system is rat cortical neurons transfected with alpha-synuclein A53T. In words: Neurite degeneration assay. It counts as cell-based. The method, then: Rat primary cortical neurons cultured in 96-well plates (Greiner Bio-One) were co-transfected with a fluorescence reporter plasmid (encoding mKate2) and empty or alpha-synuclein-A53T overexpression plasmids by lipofection at 5-6 div (days in vitro). LIPOFECTAMINE® 2000 transfection reagent (Thermo Fisher) (0.5 μl/well) was diluted in NEUROBASAL® media (Thermo Fisher) and incubated for 5-10 min. The LIPOFECTAMINE®/NEUROBASAL® mixture was then added dropwise to a plasmid cocktail diluted in NEUROBASAL® media, and incubated for approximately 40 min. During this time, conditioned media on the neurons was replaced with media containing 1× kynurenic Acid (Sigma-Aldrich) in NEUROBASAL® media (NBKY). LIPOFECTAMINE®/DNA complex solutions were subsequently added dropwise to neurons in the NBKY media in the 96-well plate. Lipofection was carried out for 30-40 min in a standard cell culture incubator (37° C., 5% CO2). Neurons were then washed with NEUROBASAL® media, and 50% conditioned/50% fresh NEUROBASAL® media containing B-27 supplement and GlutaMax™ (Thermo Fisher) (NBM) was applied to the cultures.
Transfected rat cortical neuron cultures were treated with DMSO or CAY10566 compound 4-6 h post-transfection. […] Neurite lengths of transfected neurons were tracked by an RFP reporter, mKate2, and measured by NeuroTrack™ Software Module (Essen Bioscience). […]

`Cc1nnc(-c2ccc(N3CCC(Oc4cc(F)ccc4Cl)CC3)nn2)o1` [CAY10566]: the “half-maximal inhibitory concentration (IC50), SCD1 humanized strain” value in assay [1] was “low nanomolar”. The “neurite degeneration at highest concentrations” value in assay [2] (10 nM and 3 nM) is listed as “complete rescue”. Further, the neurite degeneration result in assay [2] (titration, tracked every 6 h for 7 d, relative to DMSO) is reported as “concentration-dependent decrease in neurite degeneration”.

For the origin of these results see US20200222400A1, “METHODS FOR THE TREATMENT OF NEUROLOGICAL DISORDERS” (Yumanity Therapeutics, Inc., priority 2019, published 2020).
